{"source": "patent US20230075965A1", "about": "“USES OF BIOMARKERS FOR IMPROVING IMMUNOTHERAPY” (Dana-Farber Cancer Institute, Inc., priority 2020, published 2023)", "key": {"[1]": {"tested_on": "HLA-E on HT29 and SW620 cells", "experiment": "Flow cytometry of surface HLA-E after IFN-gamma, STAT1 KO vs control KO", "type": "cell-based, human", "conditions": "HT29 and SW620, 5 ng/ml IFN-gamma overnight", "method": "(§1) HT29 and SW620 cells were transduced with sgRNAs against STAT1 (or control OR genes) and treated overnight with vs. without 5 ng/ml IFN-gamma prior to staining. […] FIG. 6D CTG cytotoxicity assays (see Methods) for HT29 cells with HLA-E KO compared with control KO (data are represented as CTG cytotoxicity assays for HT29, SW620 cells with sgRNA against STAT1 (left) or HLA-E (right) or control KO (using OR10A2) at E:T 1:1, using 3-4 donors per line, n=7 different co-cultures, each co-culture was conducted in 6 replicates. (STAT1 p=7.24E-6, HLA-E p=2.27E-7, Mann-Whitney two sided test n=42). Data are represented as mean±SD). […] Pools of cells of the PRISM DNA-barcoded cell lines were labeled with a fluorescent conjugated antibody, sorted by flow cytometer into four bins based on its fluorescence levels and then sequenced to quantify the read counts of each barcode (and thus presence of cells from each cell line) in each bin. Surface protein expression scores were calculated per line from the read counts in each bin (see Method). […] Upper right: Normalized read counts of each bin sorted by SPIN. In view of the dynamic range of the antibody staining, the four bins were combined into two; reads from the top 2 bins with highest expression are labeled ‘High’ and reads from the 2 bins with lower staining are labeled ‘Low’. Middle right: calculated protein scores. […]"}, "[2]": {"tested_on": "HLA-A/B/C on HT29 and SW620 cells", "experiment": "Flow cytometry of surface HLA-A/B/C after IFN-gamma, STAT1 KO vs control KO", "type": "cell-based, human", "conditions": "HT29 and SW620, 5 ng/ml IFN-gamma overnight", "method": "as §1"}}}
{"substance": "IFN-gamma: interferon-gamma used to stimulate HLA-E and MHC class I expression on tumor cells", "values": [{"measurement": "HLA-E surface expression upon IFN-gamma stimulation", "setting": "[1]", "value": "upregulated in control KO, but not with STAT1 KO"}, {"measurement": "HLA-A/B/C surface expression upon IFN-gamma stimulation", "setting": "[2]", "value": "further increased with IFN-gamma stimulation in the control KO, but not in STAT1 KO cells"}]}
